{"source": "PubChem BioAssay AID194", "about": "(DTP/NCI, 2004)", "system": "BDF1 mice, B16 melanoma s.c., survival/tumor T/C", "assay": "NCI In Vivo Anticancer Drug Screen. Data for tumor model B16 Melanoma (subcutaneous) in B6D2F1 (BDF1) mice", "details": "endpoint: median survival time, higher = longer survival", "method": "The antitumor activity of compounds was measured in mice bearing transplantable tumors. Survival or tumor size were measured and the results are expressed as the measurement made in the treated group (T) divided by the measurement made in the vehicle treated control group (C). The tumor model used in this assay is B16 Melanoma (subcutaneous) in B6D2F1 (BDF1) mice", "key": {"[1]": {"details": "dose: 10.0 mg/kg/injection, schedule: Q01DX009 (ip), vehicle: saline"}, "[2]": {"details": "dose: 150.0 mg/kg/injection, schedule: Q01DX009 (ip), vehicle: Klucel (hydroxypropylcellulose) (HPC)"}}, "note": "“And” between values parts separate entries of the source, which are not always exact repeats. Equal entries are not always repeated. Inconclusive results are not listed.", "data": [{"compound": "COc1ccc(C[C@H](N)C(=O)NC2C(CO)OC(n3cnc4c(N(C)C)ncnc43)C2O)cc1", "note": "(stereo partly specified)", "values": [{"measurement": "T/C", "setting": "dose: 8.0 mg/kg/injection, schedule: Q01DX009 (ip), vehicle: saline", "result": "151 % of control"}, {"measurement": "T/C", "setting": "dose: 16.0 mg/kg/injection, schedule: Q01DX009 (ip), vehicle: saline", "result": "96 % of control"}, {"measurement": "T/C", "setting": "dose: 32.0 mg/kg/injection, schedule: Q01DX009 (ip), vehicle: saline", "result": "107 % of control"}]}, {"compound": "O=CC(NC(=O)N(CCCl)N=O)C(O)C(O)C(O)CO", "note": "(stereo unspecified)", "values": [{"measurement": "T/C", "setting": "dose: 3.0 mg/kg/injection, schedule: Q01DX009 (ip), vehicle: saline", "result": "115 % of control"}, {"measurement": "T/C", "setting": "dose: 3.3 mg/kg/injection, schedule: Q01DX009 (ip), vehicle: saline", "result": "115 % of control"}, {"measurement": "T/C", "setting": "dose: 4.5 mg/kg/injection, schedule: Q01DX009 (ip), vehicle: saline", "result": "112 % of control"}, {"measurement": "T/C", "setting": "dose: 4.9 mg/kg/injection, schedule: Q01DX009 (ip), vehicle: saline", "result": "102 % of control"}, {"measurement": "T/C", "setting": "dose: 6.8 mg/kg/injection, schedule: Q01DX009 (ip), vehicle: saline", "result": "89 % of control"}, {"measurement": "T/C", "setting": "dose: 7.4 mg/kg/injection, schedule: Q01DX009 (ip), vehicle: saline", "result": "100 % of control"}, {"measurement": "T/C", "setting": "[1]", "result": "122 % of control"}, {"measurement": "T/C", "setting": "dose: 12.0 mg/kg/injection, schedule: Q04DX003 (ip), vehicle: saline", "result": "112 % of control"}, {"measurement": "T/C", "setting": "dose: 13.0 mg/kg/injection, schedule: Q01DX001 (ip), vehicle: saline", "result": "118 % of control"}, {"measurement": "T/C", "setting": "dose: 16.0 mg/kg/injection, schedule: Q01DX001 (ip), vehicle: saline", "result": "112 % of control"}, {"measurement": "T/C", "setting": "dose: 18.0 mg/kg/injection, schedule: Q04DX003 (ip), vehicle: saline", "result": "106 % of control"}, {"measurement": "T/C", "setting": "dose: 20.0 mg/kg/injection, schedule: Q01DX001 (ip), vehicle: saline", "result": "96 % of control"}, {"measurement": "T/C", "setting": "dose: 24.0 mg/kg/injection, schedule: Q01DX001 (ip), vehicle: saline", "result": "102 % of control"}, {"measurement": "T/C", "setting": "dose: 27.0 mg/kg/injection, schedule: Q04DX003 (ip), vehicle: saline", "result": "108 % of control"}, {"measurement": "T/C", "setting": "dose: 36.0 mg/kg/injection, schedule: Q01DX001 (ip), vehicle: saline", "result": "112 % of control"}]}, {"compound": "CC(C)CCC[C@@H](C)[C@H]1CC[C@H]2[C@@H]3CC=C4C[C@@H](O)CC[C@]4(C)[C@H]3CC[C@]12C", "values": [{"measurement": "T/C", "setting": "dose: 12.5 mg/kg/injection, schedule: Q01DX009 (ip), vehicle: other", "result": "120 % of control"}, {"measurement": "T/C", "setting": "dose: 25.0 mg/kg/injection, schedule: Q01DX009 (ip), vehicle: other", "result": "96 % of control"}, {"measurement": "T/C", "setting": "dose: 50.0 mg/kg/injection, schedule: Q01DX009 (ip), vehicle: other", "result": "119 % of control"}]}, {"compound": "CC1(C)N=C(N)N=C(N)N1c1ccc(OCC(=O)N2CCOCC2)c(Cl)c1", "values": [{"measurement": "T/C", "setting": "dose: 50.0 mg/kg/injection, schedule: Q01DX009 (ip), vehicle: saline", "result": "103 % of control"}, {"measurement": "T/C", "setting": "dose: 100.0 mg/kg/injection, schedule: Q01DX009 (ip), vehicle: saline", "result": "114 % of control"}]}, {"compound": "CCSC(=O)N1c2ccc(OC)cc2C=CC1C#N", "note": "(stereo unspecified)", "values": [{"measurement": "T/C", "setting": "dose: 100.0 mg/kg/injection, schedule: Q01DX009 (ip), vehicle: saline with Tween-80", "result": "109 % of control"}, {"measurement": "T/C", "setting": "dose: 200.0 mg/kg/injection, schedule: Q01DX009 (ip), vehicle: saline with Tween-80", "result": "114 % of control"}]}, {"compound": "O=C1NC2(CCCCC2)C(=O)N1CCN(CCCl)CCCl", "values": [{"measurement": "T/C", "setting": "dose: 1.5 mg/kg/injection, schedule: Q01DX009 (ip), vehicle: saline with Tween-80", "result": "106 % of control"}, {"measurement": "T/C", "setting": "dose: 3.0 mg/kg/injection, schedule: Q01DX009 (ip), vehicle: saline with Tween-80", "result": "96 % of control"}, {"measurement": "T/C", "setting": "dose: 6.0 mg/kg/injection, schedule: Q01DX009 (ip), vehicle: saline with Tween-80", "result": "118 % of control"}]}, {"compound": "NCCc1nc(-c2nc(C(=O)O)cs2)cs1", "values": [{"measurement": "T/C", "setting": "dose: 6.25 mg/kg/injection, schedule: Q01DX009 (ip), vehicle: water", "result": "98 % of control"}, {"measurement": "T/C", "setting": "dose: 12.5 mg/kg/injection, schedule: Q01DX009 (ip), vehicle: water", "result": "95 % of control"}, {"measurement": "T/C", "setting": "dose: 25.0 mg/kg/injection, schedule: Q01DX009 (ip), vehicle: water", "result": "91 % of control"}, {"measurement": "T/C", "setting": "dose: 50.0 mg/kg/injection, schedule: Q01DX009 (ip), vehicle: water", "result": "92 % of control"}, {"measurement": "T/C", "setting": "dose: 100.0 mg/kg/injection, schedule: Q01DX009 (ip), vehicle: water", "result": "95 % of control"}]}, {"compound": "Cc1ncc([N+](=O)[O-])n1CCO", "values": [{"measurement": "T/C", "setting": "dose: 37.5 mg/kg/injection, schedule: Q01DX009 (ip), vehicle: Klucel (hydroxypropylcellulose) (HPC)", "result": "100 % of control"}, {"measurement": "T/C", "setting": "dose: 37.5 mg/kg/injection, schedule: Q04DX003 (ip), vehicle: Klucel (hydroxypropylcellulose) (HPC)", "result": "100 % of control"}, {"measurement": "T/C", "setting": "dose: 75.0 mg/kg/injection, schedule: Q01DX009 (ip), vehicle: Klucel (hydroxypropylcellulose) (HPC)", "result": "100 % of control"}, {"measurement": "T/C", "setting": "dose: 75.0 mg/kg/injection, schedule: Q04DX003 (ip), vehicle: Klucel (hydroxypropylcellulose) (HPC)", "result": "111 % of control"}, {"measurement": "T/C", "setting": "[2]", "result": "108 % of control"}, {"measurement": "T/C", "setting": "dose: 150.0 mg/kg/injection, schedule: Q04DX003 (ip), vehicle: Klucel (hydroxypropylcellulose) (HPC)", "result": "111 % of control"}, {"measurement": "T/C", "setting": "dose: 300.0 mg/kg/injection, schedule: Q01DX009 (ip), vehicle: Klucel (hydroxypropylcellulose) (HPC)", "result": "93 % of control"}, {"measurement": "T/C", "setting": "dose: 300.0 mg/kg/injection, schedule: Q04DX003 (ip), vehicle: Klucel (hydroxypropylcellulose) (HPC)", "result": "112 % of control"}, {"measurement": "T/C", "setting": "dose: 600.0 mg/kg/injection, schedule: Q04DX003 (ip), vehicle: Klucel (hydroxypropylcellulose) (HPC)", "result": "121 % of control"}]}, {"compound": "C/C=C(\\C)C(=O)O[C@@H]1c2cc3c(cc2-c2c(cc(OC)c(OC)c2OC)[C@@H]2C(=O)OC[C@@H]12)OCO3", "values": [{"measurement": "T/C", "setting": "dose: 1.25 mg/kg/injection, schedule: Q01DX009 (ip), vehicle: Klucel (hydroxypropylcellulose) (HPC)", "result": "109 % of control"}, {"measurement": "T/C", "setting": "dose: 2.5 mg/kg/injection, schedule: Q01DX009 (ip), vehicle: Klucel (hydroxypropylcellulose) (HPC)", "result": "101 % of control"}, {"measurement": "T/C", "setting": "dose: 5.0 mg/kg/injection, schedule: Q01DX009 (ip), vehicle: Klucel (hydroxypropylcellulose) (HPC)", "result": "109 % of control"}, {"measurement": "T/C", "setting": "dose: 10.0 mg/kg/injection, schedule: Q01DX009 (ip), vehicle: Klucel (hydroxypropylcellulose) (HPC)", "result": "101 % of control"}]}, {"compound": "O=c1[nH]c(=O)n(C2CC(O)C(CO)O2)cc1C(F)(F)F", "note": "(stereo unspecified)", "values": [{"measurement": "T/C", "setting": "[1]", "result": "103 % of control"}, {"measurement": "T/C", "setting": "dose: 20.0 mg/kg/injection, schedule: Q01DX009 (ip), vehicle: saline", "result": "104 % of control and 111 % of control"}, {"measurement": "T/C", "setting": "dose: 40.0 mg/kg/injection, schedule: Q01DX009 (ip), vehicle: saline", "result": "106 % of control"}, {"measurement": "T/C", "setting": "dose: 80.0 mg/kg/injection, schedule: Q01DX009 (ip), vehicle: saline", "result": "89 % of control"}, {"measurement": "T/C", "setting": "dose: 160.0 mg/kg/injection, schedule: Q01DX009 (ip), vehicle: saline", "result": "111 % of control"}]}, {"compound": "OC(CBr)C(O)C(O)C(O)CBr", "note": "(stereo unspecified)", "values": [{"measurement": "T/C", "setting": "dose: 20.0 mg/kg/injection, schedule: Q01DX009 (ip), vehicle: Klucel (hydroxypropylcellulose) (HPC)", "result": "102 % of control"}, {"measurement": "T/C", "setting": "dose: 40.0 mg/kg/injection, schedule: Q01DX009 (ip), vehicle: Klucel (hydroxypropylcellulose) (HPC)", "result": "106 % of control"}, {"measurement": "T/C", "setting": "dose: 125.0 mg/kg/injection, schedule: Q01DX009 (ip), vehicle: Klucel (hydroxypropylcellulose) (HPC)", "result": "113 % of control"}, {"measurement": "T/C", "setting": "[2]", "result": "106 % of control"}, {"measurement": "T/C", "setting": "dose: 250.0 mg/kg/injection, schedule: Q01DX009 (ip), vehicle: Klucel (hydroxypropylcellulose) (HPC)", "result": "123 % of control"}]}, {"compound": "S=P(N1CC1)(N1CC1)N1CC1", "values": [{"measurement": "T/C", "setting": "dose: 1.0 mg/kg/injection, schedule: Q01DX001 (oral), vehicle: saline", "result": "97 % of control"}, {"measurement": "T/C", "setting": "dose: 1.0 mg/kg/injection, schedule: Q02DX009 (ip), vehicle: saline", "result": "109 % of control and 113 % of control"}, {"measurement": "T/C", "setting": "dose: 2.0 mg/kg/injection, schedule: Q01DX001 (oral), vehicle: saline", "result": "89 % of control"}, {"measurement": "T/C", "setting": "dose: 2.0 mg/kg/injection, schedule: Q01DX009 (ip), vehicle: saline", "result": "106 % of control"}, {"measurement": "T/C", "setting": "dose: 2.0 mg/kg/injection, schedule: Q02DX009 (ip), vehicle: saline", "result": "99 % of control and 202 % of control"}, {"measurement": "T/C", "setting": "dose: 4.0 mg/kg/injection, schedule: Q01DX001 (oral), vehicle: saline", "result": "98 % of control"}, {"measurement": "T/C", "setting": "dose: 8.0 mg/kg/injection, schedule: Q01DX001 (oral), vehicle: saline", "result": "100 % of control"}, {"measurement": "T/C", "setting": "dose: 8.0 mg/kg/injection, schedule: Q02DX009 (ip), vehicle: saline", "result": "98 % of control"}, {"measurement": "T/C", "setting": "dose: 12.5 mg/kg/injection, schedule: Q01DX001 (ip), vehicle: saline", "result": "105 % of control"}, {"measurement": "T/C", "setting": "dose: 16.0 mg/kg/injection, schedule: Q01DX001 (oral), vehicle: saline", "result": "100 % of control"}]}]}
